Experimental data published in patent publication US6949544B2, “Inhibitors of c-Jun N-terminal kinases (JNK) and other protein kinases” (Vertex Pharmaceuticals Incorporated, priority 2001, dated 2005).

How the values were obtained:
Type in all cases: biochemical
[1] = biological target: Glycogen Synthase Kinase 3 (GSK-3) (Homo sapiens, UniProt P49841); test: GSK-3 inhibition assay (standard coupled enzyme assay); conditions: 60 nM GSK-3, 10 μM ATP; read-out: GSK-3 Inhibitory Activity (Ki rating A-C)
Method: Compounds were screened in the following manner for their ability to inhibit Glycogen Synthase Kinase 3 (GSK-3) using a standard coupled enzyme assay (Fox et al (1998) Protein Sci 7, 2249). To an assay stock buffer solution containing 0.1M HEPES 7.5, 10 mM MgCl2, 25 mM NaCl, 2.5 mM phosphoenolpyruvate, 300 μM NADH, 1 mM DTT, 30 μg/mL pyruvate kinase, 10 μg/mL lactate dehydrogenase, 300 μM peptide (HSSPHQp-SEDEEE, American Peptide, Sunnyvale, Calif.), and 60 nM GSK-3, was added a 30 μM solution of the compound in DMSO and the resulting mixture incubated at 30° C. for 5 min. The reaction was initiated by the addition of 10 μM ATP. The rates of reaction were obtained by monitoring absorbance at 340 nm over a 5 minute read time at 30° C. using a Molecular Devices plate reader (Sunnyvale, Calif.). The IC50 was determined from the rate data as a function of inhibitor concentration.

activated JNK3 = biological target: T1, activated JNK3 (Homo sapiens, UniProt P53779); test: JNK inhibition assay (spectrophotometric coupled-enzyme assay); conditions: for Ki: 10 nM activated JNK3, 10 μM ATP, read-out: Activity in the JNK3 Inhibition Assay (Ki rating A-C)
T1 construct: One such construct encodes amino acid residues Ser40-Glu402 of JNK3α1 and is preceded by Met and Gly residues; Met-Gly (initiator methionine and added glycine) (N); made in house; host or cells: E. coli BL21 (DE3)
Source text: A BLAST search of the EST database using the published JNK3α1 cDNA as a query identified an EST clone (#632588) that contained the entire coding sequence for human JNK3α1. Polymerase chain reactions (PCR) using pfu polymerase (Strategene) were used to introduce restriction sites into the cDNA for cloning into the pET-15B expression vector at the NcoI and BamHI sites. The protein was expressed in E. coli. […] This truncation corresponds to Ser 2 of JNK1 and JNK2 proteins, and is preceded by a methionine (initiation) and a glycine residue. The glycine residue was added in order to introduce an NcoI site for cloning into the expression vector. In addition, systematic C-terminal truncations were performed by PCR to identify a construct that give rise to diffraction-quality crystals.
5 mg of JNK3 was diluted to 0.5 mg/ml in 50 mM HEPES buffer, pH 7.5, containing 100 mM NaCl, 5 mM DTT, 20 mM MgCl2 and 1 mM ATP. GST-MKK7(DD) was added at a molar ratio of 1:2.5 GST-MKK7:JNK3. After incubation for 30 minutes at 25° C., the reaction mixture was concentrated 5-fold by ultrafiltration in a Centriprep-30 (Amicon, Beverly, Mass.), diluted to 10 ml and an additional 1 mM ATP added. This procedure was repeated three times to remove ADP and replenish ATP. The final addition of ATP was 5 mM and the mixture incubated overnight at 4° C.
The activated JNK3/GST-MKK7(DD) reaction mixture was exchanged into 50 mM HEPES buffer, pH 7.5, containing 5 mM DTT and 5% glycerol (w/v) by dialysis or ultrafiltration. The reaction mixture was adjusted to 1.1 M potassium phosphate, pH 7.5, and purified by hydrophobic interaction chromatography (at 25° C.) using a Rainin Hydropore column. […] Activated JNK3 (i.e. doubly phosphorylated JNK3) was stored at −70° C. at 0.25-1 mg/ml.
Compounds were assayed for the inhibition of JNK3 by a spectrophotometric coupled-enzyme assay. In this assay, a fixed concentration of activated JNK3 (10 nM) was incubated with various concentrations of a potential inhibitor dissolved in DMSO for 10 minutes at 30° C. in a buffer containing 0.1 M HEPES buffer, pH 7.5, containing 10 mM MgCl2, 2.5 mM phosphoenolpyruvate, 200 μM NADH, 150 μg/mL pyruvate kinase, 50 μg/mL lactate dehydrogenase, and 200 μM EGF receptor peptide. […] The reaction was initiated by the addition of 10 μM ATP and the assay plate is inserted into the spectrophotometer's assay plate compartment that was maintained at 30° C. The decrease of absorbance at 340 nm was monitored as a function of time. The rate data as a function of inhibitor concentration was fitted to competitive inhibition kinetic model to determine the Ki.

CDK-2/Cyclin A = CDK-2/Cyclin A (Homo sapiens, UniProt P24941); test: CDK2 inhibition assay (standard coupled enzyme assay); conditions: 25 nM CDK-2/Cyclin A; read-out: CDK2 Inhibitory Activity (Ki rating A-C)
Method: Compounds were screened in the following manner for their ability to inhibit CDK2 using a standard coupled enzyme assay (Fox et al (1998) Protein Sci 7, 2249).
To an assay stock buffer solution containing 0.1M HEPES 7.5, 10 mM MgCl2, 1 mM DTT, 25 mM NaCl, 2.5 mM phosphoenolpyruvate, […], […], […], […], and 100 μM peptide ([…], American Peptide, Sunnyvale, Calif.) was added a DMSO solution of a compound of the present invention to a final concentration of 30 μM. The resulting mixture was incubated at 30° C. for 10 minutes.
The reaction was initiated by the addition of 10 μL of CDK-2/Cyclin A stock solution to give a final concentration of 25 nM in the assay. The rates of reaction were obtained by monitoring absorbance at 340 nm over a 5-minute read time at 30° C. using a BioRad Ultramark plate reader (Hercules, Calif.). The Ki values were determined from the rate data as a function of inhibitor concentration.

[2] = biological target: T2, Lck kinase purified from bovine thymus (Bos taurus, UniProt Q3ZCM0); test: Lck inhibition assay (33P incorporation into poly Glu-Tyr); conditions: 10 μM ATP; read-out: Activity in the Lck Inhibition Assay (Ki rating A-C)
T2 construct: Lck kinase purified from bovine thymus; purchased Upstate Biotechnology 14-106; host or cells: bovine thymus (tissue-purified)
Method: The compounds were assayed as inhibitors of Lck kinase purified from bovine thymus (from Upstate Biotechnology, cat. no. 14-106). Lck kinase activity was monitored by following the incorporation of ^33P from ATP into the tyrosine of a random poly Glu-Tyr polymer substrate of composition, Glu:Tyr=4:1 (Sigma, cat. no. P-0275). The following were the final concentrations of the assay components: 0.05 M HEPES, pH 7.6, 10 mM MgCl2, 2 mM DTT, 0.25 mg/ml BSA, 10 μM ATP (1-2 μCi ^33P-ATP per reaction), 5 mg/ml poly Glu-Tyr, and 1-2 units of lck kinase. In a typical assay, all the reaction components with the exception of ATP were pre-mixed and aliquoted into assay plate wells. […] The assay plate was incubated at 30° C. for 10 min before initiating the reaction with ^33P-ATP. After 20 min of reaction, the reactions were quenched with 150 μl of 10% trichloroacetic acid (TCA) containing 20 mM Na3PO4. The quenched samples were then transferred to a 96-well filter plate (Whatman, UNI-Filter GF/F Glass Fiber Filter, cat no. 7700-3310) installed on a filter plate vacuum manifold. Filter plates were washed four times with 10% TCA containing 20 mM Na3PO4 and then 4 times with methanol. 200 μl of scintillation fluid was then added to each well. The plates were sealed and the amount of radioactivity associated with the filters was quantified on a TopCount scintillation counter.

T2 sequence (Q3ZCM0 1-509): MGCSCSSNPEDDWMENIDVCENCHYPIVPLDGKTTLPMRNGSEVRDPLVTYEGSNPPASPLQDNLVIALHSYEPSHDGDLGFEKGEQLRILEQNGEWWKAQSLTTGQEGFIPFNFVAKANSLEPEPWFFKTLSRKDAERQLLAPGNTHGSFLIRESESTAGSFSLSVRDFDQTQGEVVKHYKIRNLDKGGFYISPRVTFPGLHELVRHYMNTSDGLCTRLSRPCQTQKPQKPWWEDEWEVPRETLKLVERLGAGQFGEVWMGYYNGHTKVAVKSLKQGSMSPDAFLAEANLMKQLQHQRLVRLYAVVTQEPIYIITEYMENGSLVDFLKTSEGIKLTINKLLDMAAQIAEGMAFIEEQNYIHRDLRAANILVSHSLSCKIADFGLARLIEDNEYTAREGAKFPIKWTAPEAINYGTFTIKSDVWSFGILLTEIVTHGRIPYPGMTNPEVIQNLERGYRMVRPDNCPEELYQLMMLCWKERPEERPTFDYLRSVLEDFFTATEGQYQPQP
T1 sequence (P53779 40-402): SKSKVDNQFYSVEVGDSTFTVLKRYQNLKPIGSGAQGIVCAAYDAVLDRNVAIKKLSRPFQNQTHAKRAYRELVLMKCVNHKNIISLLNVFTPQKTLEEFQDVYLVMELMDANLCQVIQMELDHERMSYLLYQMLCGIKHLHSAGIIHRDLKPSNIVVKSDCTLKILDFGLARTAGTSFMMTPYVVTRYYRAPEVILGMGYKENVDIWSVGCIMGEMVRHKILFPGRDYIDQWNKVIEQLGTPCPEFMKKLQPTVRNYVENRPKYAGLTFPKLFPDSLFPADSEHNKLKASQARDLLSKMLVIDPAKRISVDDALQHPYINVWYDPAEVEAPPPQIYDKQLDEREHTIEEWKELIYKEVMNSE
Sequence of Glycogen Synthase Kinase 3 (GSK-3) (P49841 whole entry): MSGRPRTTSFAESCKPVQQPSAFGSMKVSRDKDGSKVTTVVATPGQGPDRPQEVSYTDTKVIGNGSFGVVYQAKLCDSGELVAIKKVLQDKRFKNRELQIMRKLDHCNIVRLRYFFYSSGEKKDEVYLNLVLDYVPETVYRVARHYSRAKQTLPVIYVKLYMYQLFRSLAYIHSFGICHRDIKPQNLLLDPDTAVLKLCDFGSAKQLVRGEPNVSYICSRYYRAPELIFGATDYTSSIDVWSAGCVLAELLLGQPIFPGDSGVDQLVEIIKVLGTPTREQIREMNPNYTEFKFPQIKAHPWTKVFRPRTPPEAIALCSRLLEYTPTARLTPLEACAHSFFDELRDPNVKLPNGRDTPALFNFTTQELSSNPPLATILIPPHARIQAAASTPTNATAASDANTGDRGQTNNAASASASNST

Compound	Ki [1]	Ki (activated JNK3)	Ki (CDK-2/Cyclin A)	Ki [2]	Activity in the JNK3 Inhibition Assay (percent inhibition rating D-F) (activated JNK3; at a 2 μM inhibitor concentration)
COc1cc(-c2ccnc(Nc3cccc(OCc4ccccc4)c3)n2)cc(OC)c1OC [Compound I-38]	< 100 nM	< 100 nM	> 5 µM		
COc1cccc(Nc2ncnc(Nc3nccc(-c4ccc(OC)c(OC)c4OC)n3)n2)c1 [II-33]	> 1000 nM	> 1000 nM		> 1000 nM	
COc1cccc(Oc2cc(Nc3nccc(-c4ccc(OC)c(OC)c4OC)n3)ccc2OC)c1 [II-75]	< 100 nM		> 5 µM	< 100 nM	
COc1ccc(Nc2nccc(-c3ccc(OC)c(OC)c3OC)n2)cc1O [II-70]	100 to 1000 nM		> 5 µM	100 to 1000 nM	
COc1cccc(Nc2nccc(-c3cc(OC)c(OC)c(OC)c3)n2)c1 [Compound I-20]	100 to 1000 nM	< 100 nM	> 5 µM		
COc1ccc(Nc2nccc(-c3ccc(OC)c(OC)c3OC)n2)cc1Oc1cccc(Cl)c1 [II-74]	< 100 nM		> 5 µM	< 100 nM	
COc1ccc(-c2ccnc(Nc3cccc(Oc4cccc(N)c4)c3)n2)c(OC)c1OC [II-26]	< 100 nM			< 100 nM	
CCOc1ccc(Oc2cc(Nc3nccc(-c4ccc(OC)c(OC)c4OC)n3)ccc2OC)cc1 [II-76]	100 to 1000 nM		> 5 µM	< 100 nM	
COc1c(-c2ccnc(Nc3cccc(OCc4ccccc4)c3)n2)ccc2c1OCCO2 [II-18]	> 1000 nM			> 1000 nM	
COc1ccc(-c2ccc(C)c(Nc3nccc(-c4ccc(OC)c(OC)c4OC)n3)c2)cc1 [II-44]	> 1000 nM		> 5 µM	100 to 1000 nM	
COc1cc(-c2ccnc(Nc3cccc(Cl)c3)n2)cc(OC)c1OCCN1CCOCC1 [Compound I-39, (3-Chlorophenyl)-(4[3,5-dimethoxy-4-(2-morpholin-4-yl-ethoxy)phenyl]pyrimidin-2-yl)-amine]	100 to 1000 nM	< 100 nM	> 5 µM		
COc1c(Cl)cc(-c2ccnc(Nc3cccc(Cl)c3)n2)cc1Cl [Compound I-41]	100 to 1000 nM	100 to 1000 nM	> 5 µM		
COc1cccc(Nc2nccc(-c3cc(Cl)c(OC)c(Cl)c3)n2)c1 [Compound I-51]	100 to 1000 nM	< 100 nM	> 5 µM		
COc1cc(-c2ccnc(Nc3onc(C)c3C)n2)cc(OC)c1OC [Compound I-87]	> 1000 nM	100 to 1000 nM			
COc1cc(-c2ccnc(Nc3cc(F)c(F)c(F)c3)n2)cc(OC)c1OC [Compound I-22]	> 1000 nM	< 100 nM	> 5 µM		
COc1cc(-c2ccnc(Nc3ccc(Cl)cc3)n2)cc(OC)c1OC [Compound I-9]	100 to 1000 nM	< 100 nM	> 5 µM		

Compound	Ki [1]	Ki (activated JNK3)	Ki (CDK-2/Cyclin A)	Ki [2]	Activity in the JNK3 Inhibition Assay (percent inhibition rating D-F) (activated JNK3; at a 2 μM inhibitor concentration)
COc1cc(-c2ccnc(Nc3nc(C)cs3)n2)cc(OC)c1OC [Compound I-10]	100 to 1000 nM	100 to 1000 nM	> 5 µM		
COc1ccc(-c2ccnc(Nc3ncnc(Nc4ccccc4)n3)n2)c(OC)c1OC [II-32]	100 to 1000 nM	< 100 nM		> 1000 nM	
COc1c(Br)cc(-c2ccnc(Nc3cccc(Cl)c3)n2)cc1Br [Compound I-43]	100 to 1000 nM	100 to 1000 nM	> 5 µM		
COc1ccc(Oc2cc(Nc3nccc(-c4ccc(OC)c(OC)c4OC)n3)ccc2OC)cc1 [II-73]	< 100 nM		> 5 µM	< 100 nM	
COc1ccc(Nc2nccc(-c3cc(OC)c(OC)c(OC)c3)n2)cc1Cl [Compound I-35]	< 100 nM	< 100 nM	> 5 µM		
COc1c(C)cc(-c2ccnc(Nc3cccc(Cl)c3)n2)cc1C [Compound I-42]	> 1000 nM	< 100 nM	> 5 µM		
COc1cc(-c2ccnc(Nc3nnc(C)s3)n2)cc(OC)c1OC [Compound I-83]	> 1000 nM	> 1000 nM			
COc1cc(-c2ccnc(Nc3nc4ccccc4[nH]3)n2)cc(OC)c1OC [Compound I-65]	< 100 nM		> 5 µM		D (percent inhibition less than or equal to 33%)
COc1cccc(Nc2nccc(-c3cc(OC)c(OCCN4CCOCC4)c(OC)c3)n2)c1 [Compound I-49]	100 to 1000 nM	< 100 nM	> 5 µM		
COc1ccc(-c2ccnc(Nc3cc(-c4cccc(N)c4)ccc3C)n2)c(OC)c1OC [II-46]	> 1000 nM		> 5 µM	100 to 1000 nM	
COc1ccc(Nc2nccc(-c3ccc(OC)c(OC)c3OC)n2)cc1[N+](=O)[O-] [II-71]	> 1000 nM		> 5 µM	100 to 1000 nM	
COc1ccc(-c2ccnc(Nc3cccc(Oc4cccc([N+](=O)[O-])c4)c3)n2)c(OC)c1OC [II-25]	< 100 nM			< 100 nM	
COc1cc(-c2ccnc(Nc3ccccc3F)n2)cc(OC)c1OC [Compound I-5]	> 1000 nM	100 to 1000 nM	> 5 µM		
COc1cc(-c2ccnc(Nc3cccc(Cl)c3)n2)cc(OC)c1OC [Compound I-18]	< 100 nM	< 100 nM	> 5 µM		
COc1cc(-c2ccnc(Nc3cc(C)n[nH]3)n2)cc(OC)c1OC [Compound I-88]	> 1000 nM	100 to 1000 nM			
